In US20230242532A1, “TETRACYCLIC PYRIMIDINONE COMPOUND, PREPARATION METHOD THEREFOR, AND COMPOSITION AND USE THEREOF” (NEUSCO BIOTECH LIMITED, priority 2019, published 2023):
Where two headings read alike, the source gives them in different places.

Legend:
[1] = molecular target: T1, recombinant human Lp-PLA2 enzyme (Homo sapiens, UniProt Q13093); experiment: Recombinant human Lp-PLA2 assay (rhLp-PLA2), PED6 assay; format: biochemical
T1 sequence (Q13093 22-441): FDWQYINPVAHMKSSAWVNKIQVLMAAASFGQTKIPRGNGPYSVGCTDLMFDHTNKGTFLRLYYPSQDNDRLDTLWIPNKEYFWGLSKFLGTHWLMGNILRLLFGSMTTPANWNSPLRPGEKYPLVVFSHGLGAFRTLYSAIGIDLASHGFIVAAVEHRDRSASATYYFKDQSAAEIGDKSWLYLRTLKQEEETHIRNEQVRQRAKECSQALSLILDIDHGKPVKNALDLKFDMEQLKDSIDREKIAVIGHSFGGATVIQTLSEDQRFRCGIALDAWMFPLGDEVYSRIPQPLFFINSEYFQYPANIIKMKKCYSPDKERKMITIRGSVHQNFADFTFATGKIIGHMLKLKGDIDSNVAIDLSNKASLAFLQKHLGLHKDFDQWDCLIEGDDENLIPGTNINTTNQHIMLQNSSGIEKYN
Protocol: (1) Recombinant Human Lp-PLA2 Assay (rhLp-PLA2), Also Referred to as PED6 Assay
PED6 was a fluorescently-labeled phospholipid that could be purchased dorectly from Invitogene or Molecular Probes. […] Once cleaved by the Lp-PLA2 enzyme, it would release the FL group, resulting in enhanced fluorescence.
Assay Method: The compound to be tested (as shown in Table 1) was mixed with a DMSO solution in a volume ratio of 1:3, and diluted to prepare a source plate of a 384-well microplate. Then 0.01 μl of the compound was transferred via an ECHO liquid dispenser from the source plate to a 384-well Greiner 784076 plate, and 5 μl of a buffer consisting of 50 mM HEPES, pH7.4, 150 mM NaCl, and 1 mM CHAPS (the buffer solution containing a recombinant human Lp-PLA2 enzyme at a concentration of 4 nM or 110 pM) was added to each well of the plate. The plate was centrifuged at 500 rpm for 10 seconds. After a 30-min pre-incubation, 5 μl of the above-mentioned buffer was added to a 384-well Greiner 784076 plate, the plate was centrifuged at 500 rpm for 10 seconds.

[2] = molecular target: T2, Lp-PLA2 enzyme in human plasma (Homo sapiens, UniProt Q13093); experiment: Assay of Lp-PLA2 in human plasma (Thio-PAF assay); format: biochemical
T2 construct: from tissue; host or cells: mixed (pooled) human plasma
T2 sequence (Q13093 22-441): T1 sequence (Q13093 22-441)
Protocol: (2) Assay of Lp-PLA2 in Human Plasma (Also Referred to as Thio-PAF Assay)
The human plasma assay was conducted using the sulphatide analog of PAF (phosphatidylcholine). After hydrolysis, it would generate phospholipids containing free sulfhydryl groups, which would be subjected to Michael addition with CPM to generate fluorescence-enhancing maleimide. Continuous quantitative analysis of thiol could be conducted by detecting the fluorescence intensity. This assay could be used to detect the inhibitory activity of the Lp-PLA2 inhibitor on the Lp-PLA2 enzyme in human plasma.
Assay Method: The compound to be tested (as shown in Table 2) was mixed with a DMSO solution in a volume ratio of (1:3), and diluted to prepare a source plate of a 384-well microplate. Then 0.01 μl of the compound was transferred via an ECHO liquid dispenser from the source plate to a 384-well Greiner 784076 plate, and 8 μl of pre-aliquoted and frozen mixed human plasma was then added. The plate was centrifuged at 500 rpm for 10 seconds. After a 30-min pre-incubation, 2 μl of a substrate solution, and a buffer containing 2.5 mM 2-thio-PAF (a solution in ethanol), 32 μM CPM (a solution in DMSO) and 3.2 mM N-ethylmaleimide (NEM) (a buffer solution consisting of 50 mM HEPES, pH7.4, 150 mM NaCl, 1 mM CHAPS) was added by a BRAVO liquid handling station to a 384-well Greiner 784076 low-volume plate. Two minutes later, the reaction was quenched with 5 μl of 5% trifluoroacetic acid. After the plate was incubated at room temperature for 40 min in a dark place, the fluorescence intensity was read at ex 380/em 485 with an Envision microplate reader, and the XL fitting model in Excel was used to perform the curve analysis and QC analysis to calculate pIC50.

[3] = PED6 substrate, recombinant human Lp-PLA2 at 4 nM or 110 pM, 30-min pre-incubation, fluorescence ex 480/em 540, read-out: rhLp-PLA2 (pIC50) (converted)
[4] = mixed human plasma, 2-thio-PAF substrate with CPM, 30-min pre-incubation, fluorescence ex 380/em 485, read-out: Thio-PAF (pIC50) (converted)

## O=c1nc(OCc2cccc(F)c2F)cc2n1CC13CCC(CC1)N23 [Compound 1]
[1]
  IC50: 2.51 nM
[2]
  IC50: 100 nM

## O=c1nc(OCc2ccc(F)cc2)cc2n1CC13CCC(CC1)N23 [Compound 2]
[1]
  IC50: 0.794 nM
[2]
  IC50: 25.1 nM

## O=c1nc(OCc2ccc(F)c(F)c2)cc2n1CC13CCC(CC1)N23 [Compound 3]
[1]
  IC50: 0.501 nM
[2]
  IC50: 15.8 nM

## O=c1nc(OCc2cc(F)c(Oc3ccnc(C(F)(F)F)c3)c(F)c2)cc2n1CC13CCC(CC1)N23 [Compound 4]
[1]; [3]
  IC50: 0.0398 nM
[2]; [4]
  IC50: 3.98 nM

## O=c1nc(OCc2cc(F)c(Oc3ccc(C(F)(F)F)cc3)c(F)c2)cc2n1CC13CCC(CC1)N23 [Compound 5]
[1]; [3]
  IC50: 0.0316 nM
[2]; [4]
  IC50: 6.31 nM

## O=c1nc(OCc2cc(F)c(Oc3ccc(C(F)(F)F)nc3)c(F)c2)cc2n1CC13CCC(CC1)N23 [Compound 6]
[1]; [3]
  IC50: 0.0501 nM
[2]; [4]
  IC50: 7.94 nM

## Cc1cc(Oc2c(F)cc(COc3cc4n(c(=O)n3)CC35CCC(CC3)N45)cc2F)ccn1 [Compound 7]
[1]; [3]
  IC50: 0.0398 nM
[2]; [4]
  IC50: 3.16 nM

## Cc1ccc(Oc2c(F)cc(COc3cc4n(c(=O)n3)CC35CCC(CC3)N45)cc2F)cn1 [Compound 8]
[1]; [3]
  IC50: 0.0316 nM
[2]; [4]
  IC50: 7.94 nM

## Cc1ncc(Oc2c(F)cc(COc3cc4n(c(=O)n3)CC35CCC(CC3)N45)cc2F)cn1 [Compound 9]
[1]; [3]
  IC50: 0.1 nM
[2]; [4]
  IC50: 12.6 nM

## O=c1nc(OCc2cc(F)c(Oc3ccc(Cl)c(C(F)(F)F)c3)c(F)c2)cc2n1CC13CCC(CC1)N23 [Compound 10]
[1]; [3]
  IC50: 0.0631 nM
[2]; [4]
  IC50: 7.94 nM

## O=c1nc(OCc2cc(F)c(Oc3cccc(C(F)(F)F)c3)c(F)c2)cc2n1CC13CCC(CC1)N23 [Compound 11]
[1]; [3]
  IC50: 0.0794 nM
[2]; [4]
  IC50: 12.6 nM

## Cc1cc(Oc2c(F)cc(COc3cc4n(c(=O)n3)CC35CCC(CC3)N45)cc2F)ccc1Cl [Compound 12]
[1]; [3]
  IC50: 0.0794 nM
[2]; [4]
  IC50: 10 nM

## O=c1nc(OCc2cc(F)c(Oc3cnc(C(F)(F)F)nc3)c(F)c2)cc2n1CC13CCC(CC1)N23 [Compound 13]
[1]; [3]
  IC50: 0.251 nM
[2]; [4]
  IC50: 20 nM

## O=c1nc(OCc2cc(F)c(Oc3ccc(C(F)(F)F)c(Cl)c3)c(F)c2)cc2n1CC13CCC(CC1)N23 [Compound 14]
[1]; [3]
  IC50: 0.0794 nM
[2]; [4]
  IC50: 7.94 nM

## O=c1nc(OCc2cc(F)c(Oc3cccc(OC(F)(F)F)c3)c(F)c2)cc2n1CC13CCC(CC1)N23 [Compound 16]
[1]; [3]
  IC50: 0.1 nM
[2]; [4]
  IC50: 12.6 nM

## O=c1nc(OCc2cc(F)c(Oc3ccc(OC(F)(F)F)c(Cl)c3)c(F)c2)cc2n1CC13CCC(CC1)N23 [Compound 17]
[1]; [3]
  IC50: 0.0794 nM
[2]; [4]
  IC50: 10 nM

## O=c1nc(OCc2cc(F)c(Oc3ccnc(C(F)(F)F)c3)c(F)c2)cc2n1CC13CCCC(CC1)N23 (stereo not drawn) [Compound 18]
[1]; [3]
  IC50: 0.1 nM
[2]; [4]
  IC50: 7.94 nM

## Cc1ncc(Oc2c(F)cc(COc3cc4n(c(=O)n3)CC35CCCC(CC3)N45)cc2F)cn1 (stereo not drawn) [Compound 19]
[1]; [3]
  IC50: 0.316 nM
[2]; [4]
  IC50: 15.8 nM
